From patent US9968631B2, “Method for treatment of pulmonary fibrosis” (Galectin Therapeutics, Inc., priority 2013, dated 2018)
“Also recorded” adds a separate entry of the source.

Tests used:
[1] = test system: bleomycin-induced pulmonary fibrosis in C57Bl/6 mice; experiment: Early treatment of pulmonary fibrosis induced by bleomycin in C57Bl/6 mice; assay type: in vivo, mouse; conditions: for lung weight vs vehicle-treated mice / total lung hydroxyproline content vs vehicle-treated mice: Day 21, GM-CT-01 120 mg/kg; for lung weight vs vehicle-treated mice: GR-MD-02 60 mg/kg IV days -1, 2, 6, 9, 13, 16, 20, FIG. 2; for total lung hydroxyproline content vs vehicle-treated mice / Modified Ashcroft Index score, difference vs vehicle, p (unpaired t-test): GR-MD-02 60 mg/kg IV; for lung pathology with trichrome stain (fibrosis): FIG. 7; for Modified Ashcroft Index Score compared to the vehicle group: histologic analysis; for general fibrosis score, difference vs vehicle, p (unpaired t-test) / Inflammation score, difference vs vehicle, p (unpaired t-test) / Modified Ashcroft Index score, difference vs vehicle, p (unpaired t-test): outliers removed; for general fibrosis score, difference vs vehicle, p (unpaired t-test): FIG. 5; for Inflammation score, difference vs vehicle, p (unpaired t-test): FIG. 6; for Modified Ashcroft Index score, difference vs vehicle, p (unpaired t-test): GM-CT-01 120 mg/kg, FIG. 4
Method: Instillation of bleomycin in the trachea induces changes similar to diffuse pulmonary fibrosis and/or fibrosing alveolitis in humans. There is an increase in deposition and net synthesis of collagen in the lung with this model.
This model can be used to evaluate therapy started in the inflammatory phase of the belomycin insult (started<7 day after bleomycin) or after the inflammatory phase and during fibrogenesis (started>7 day after bleomycin). In this example, early therapy was evaluated.
The GM (GM-CT-01) and GA-RG (GR-MD-02) compounds were evaluated as preventative therapy in this mouse model.
Pulmonary fibrosis was induced in animals using intra-tracheal instillation of bleomycin at 2.25 U/kg. Animals were treated using a GM compound (GM-CT-01) or GA-RG compound (GR-MD-02) delivered by intravenous infusion as described in Table 1.
Animals were euthanized on Day 21 and the lungs were weighed. Data shown in FIG. 2 represent group means and SEM. Statistical comparison among all groups was performed using one-way ANOVA with Newman-Keuls multiple comparison test.
After euthanasia, the total lung hydroxyproline content was measured. Data shown in FIG. 3 represent group mean and SEM and expressed as microgram of hydroxyproline per mg of lung tissue. Statistical comparison to the “vehicle+Bleomycin” group was performed using one-way ANOVA with Holm-Sidak's multiple comparison test.

[2] = test system: bleomycin-induced pulmonary fibrosis in C57Bl/6 mice; experiment: Late treatment of pulmonary fibrosis induced by bleomycin in C57Bl/6 mice; assay type: in vivo, mouse; conditions: for lung pathology with trichrome stain (fibrosis): FIG. 14; for lung pathology with H & E (fibrosis): FIG. 15; for overall antifibrotic treatment effect: GM-CT-01 120 mg/kg, GR-MD-02 60 mg/kg IV days 10, 13, 16, 20; for Modified Ashcroft Index score vs vehicle: change did not reach significance, FIG. 11; for general fibrosis score vs vehicle: differences did not reach statistical significance, FIG. 12; for Inflammation score vs vehicle: differences not statistically significant, FIG. 13; for percent of fibrotic lung (percent of lung affected): not statistically significant
Method: In these experiments, treatment was initiated after the time when the inflammatory reaction is known to have subsided and the process is one of primarily fibrogenesis. Pulmonary fibrosis was induced in animals using bleomycin at 2.25 U/kg at day 0 as described above. Animals were treated using a GM compound intravenously (GM-CT-01) or GA-RG compound intravenously (GR-MD-02) as described in Table 2.
Animals were euthanized on Day 21 and the lungs were weighed. Data shown in FIG. 9 represent group means and standard error of the means.
The total lung hydroxyproline content was measured. Data shown in FIG. 10 represent group mean and expressed as microgram of hydroxyproline per mg of lung tissue.

[3] = comparison in the experience of the laboratory

Substance | lung weight vs vehicle-treated mice [1] | total lung hydroxyproline content vs vehicle-treated mice ([1]; FIG. 3) | lung pathology with trichrome stain (fibrosis) [1] | results compared to pirfenadone [1, 3] | results compared to treatment with anti-TGFbeta [1, 3] | Modified Ashcroft Index Score compared to the vehicle group [1] | general fibrosis score, difference vs vehicle, p (unpaired t-test) [1] | Inflammation score, difference vs vehicle, p (unpaired t-test) [1] | Modified Ashcroft Index score, difference vs vehicle, p (unpaired t-test) [1] | total lung hydroxyproline content (in words) ([2]; Day 21, GM-CT-01 120 mg/kg IV days 10, 13, 16, 20, compared with GR-MD-02, FIG. 10) | lung pathology with trichrome stain (fibrosis) [2] | lung pathology with H & E (fibrosis) [2] | overall antifibrotic treatment effect [2] | Modified Ashcroft Index score vs vehicle [2] | general fibrosis score vs vehicle [2] | Inflammation score vs vehicle [2] | percent of fibrotic lung (percent of lung affected) [2] | total lung hydroxyproline content vs vehicle-treated mice ([1]; FIG. 3, listed as GA-MD-02) | lung weight vs control animals ([2]; Day 21, GR-MD-02 60 mg/kg IV days 10, 13, 16, 20, FIG. 9) | reduction of the increase in hydroxyproline ([2]; Day 21, GR-MD-02 60 mg/kg IV days 10, 13, 16, 20, did not reach significance, FIG. 10) [%]
1,4-β-D-Galactomannan [GM-CT-01] | significantly reduce lung weight; also recorded: significant reduction in mean lung weight; also recorded: markedly reduce lung weight | reduce lung hydroxyproline content; also recorded: significant reduction; also recorded: markedly reduce | effective at reducing fibrosis | superior to the results using pirfenadone | superior to treatment with anti-TGFbeta | significant reduction | 0.0979 | 0.0544 | 0.0199 | less of a decrease | less effect | some reduction in the fibrosis | effective at reducing pulmonary fibrosis; also recorded: more modest positive treatment effect | little change | reduction in the fibrosis score | no change | notably reduced |  |  | 
galactoarabino-rhamnogalacturonate [GR-MD-02] | significantly reduce lung weight; also recorded: significant reduction in mean lung weight; also recorded: markedly reduce lung weight | significant reduction; also recorded: markedly reduce | effective at reducing fibrosis | superior to the results using pirfenadone |  | significant reduction | 0.0206 | 0.0508 | 0.0112 |  | effective at reducing fibrosis | marked decrease in fibrous tissue | effective at reducing pulmonary fibrosis; also recorded: strongest anifibrotic effect; also recorded: more effective than GM-CT-01 | reduction in the Aschroft score | reduction in the fibrosis score | reduction in inflammation score | tended to have reduced percent of fibrotic lung | reduce lung hydroxyproline content | decreased lung weight of the GR-MD-02 treated group as compared to control animals, this difference did not reach statistical significance | 50
